Experimental data taken from US20040102444A1, “Method for delivering drugs to the retina” (priority 2002, published 2004).

Tests used:
[1] = tested on: other RTKs including VEGF receptors; test: standard tyrosine kinase assay, other RTKs; assay type: biochemical
PDGF receptors = test: cellular autophosphorylation assay, transfected Chinese hamster ovary cells; assay type: cell-based
Description: (§1) In vivo activity requires drugs to enter cells and therefore agents are tested in cellular autophosphorylation assays, using Chinese hamster ovary cells transfected with one of several RTK genes.

[2] = tested on: other receptors tested including VEGF receptors; test: as above
Description: as §1

VEGF receptors = test: as above
Description: as §1

C57BL/6 mice = test: VEGF-induced BRB breakdown measured with [3H]mannitol as tracer after topical administration; assay type: in vivo; conditions: suspension topically in one eye twice a day for 3 days prior to intraocular injection of VEGF
Description: Intraocular injections are performed with a Harvard pump microinjection apparatus and pulled glass micropipets. Each micropipet is calibrated to deliver 1 μL of vehicle upon depression of a foot switch. Mice are anesthetized with 25 mg/kg of ketamine and 4 mg/kg of xylazine, pupils are dilated with 1% tropicamide. Under a dissecting microscope, the sharpened tip of a micropipet is passed through the sclera just behind the limbus into the vitreous cavity, and the foot switch is depressed and 1 μL of 10^−6 M human VEGF (R&D Systems, Minneapolis, Minn.) is injected.
Six or 24 hours after intraocular injections, mice are given an intraperitoneal injection of 1 μCi/g body weight of [^3H]mannitol (New England Nuclear, Boston, Mass.). After one hour, mice are sacrificed and eyes are removed. The cornea and lens are removed and the entire retina is carefully dissected from the eyecup and placed within pre-weighed scintillation vials. […] All liquid is removed from the vials and remaining droplets are allowed to evaporate over 20 minutes. The vials are weighed and the tissue weights are recorded. One mL of NCSII solubilizing solution (Amersham, Chicago, Ill.) is added to each vial and the vials are incubated overnight in a 50° C. water bath. The solubilized tissue is brought to RT and decolorized with 20% benzoyl peroxide in toluene in a 50° C. water bath. […]

c-Kit = c-Kit (Homo sapiens, UniProt P10721); conditions: transfected Chinese hamster ovary cells
insulin receptor = insulin receptor (Homo sapiens, UniProt P06213); test: cellular autophosphorylation assay, transfected Chinese hamster ovary cells
Description: as §1

c-erbB2 = c-erbB2 (Homo sapiens, UniProt P04626); test: as above
Description: as §1

Flt-1 = molecular target: T1, Flt-1 (Homo sapiens, UniProt P17948); test: standard tyrosine kinase assay: phosphorylation of poly(GluTyr) by GST-fusion kinase domain; assay type: biochemical
T1 construct: GST-fusion proteins of the kinase domains of several tyrosine kinase receptors; GST
T1 sequence (P17948 827-1158 limits assumed): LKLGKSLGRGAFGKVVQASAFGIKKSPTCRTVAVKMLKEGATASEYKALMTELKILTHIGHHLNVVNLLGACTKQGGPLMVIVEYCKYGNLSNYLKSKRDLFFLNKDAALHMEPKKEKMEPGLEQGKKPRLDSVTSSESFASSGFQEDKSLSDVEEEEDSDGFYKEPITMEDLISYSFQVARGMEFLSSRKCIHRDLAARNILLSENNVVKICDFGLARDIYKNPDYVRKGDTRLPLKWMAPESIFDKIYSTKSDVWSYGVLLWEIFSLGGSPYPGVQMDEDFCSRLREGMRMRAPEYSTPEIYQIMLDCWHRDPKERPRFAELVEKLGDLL

insulin receptor, sequence (P06213 28-1382, species assumed): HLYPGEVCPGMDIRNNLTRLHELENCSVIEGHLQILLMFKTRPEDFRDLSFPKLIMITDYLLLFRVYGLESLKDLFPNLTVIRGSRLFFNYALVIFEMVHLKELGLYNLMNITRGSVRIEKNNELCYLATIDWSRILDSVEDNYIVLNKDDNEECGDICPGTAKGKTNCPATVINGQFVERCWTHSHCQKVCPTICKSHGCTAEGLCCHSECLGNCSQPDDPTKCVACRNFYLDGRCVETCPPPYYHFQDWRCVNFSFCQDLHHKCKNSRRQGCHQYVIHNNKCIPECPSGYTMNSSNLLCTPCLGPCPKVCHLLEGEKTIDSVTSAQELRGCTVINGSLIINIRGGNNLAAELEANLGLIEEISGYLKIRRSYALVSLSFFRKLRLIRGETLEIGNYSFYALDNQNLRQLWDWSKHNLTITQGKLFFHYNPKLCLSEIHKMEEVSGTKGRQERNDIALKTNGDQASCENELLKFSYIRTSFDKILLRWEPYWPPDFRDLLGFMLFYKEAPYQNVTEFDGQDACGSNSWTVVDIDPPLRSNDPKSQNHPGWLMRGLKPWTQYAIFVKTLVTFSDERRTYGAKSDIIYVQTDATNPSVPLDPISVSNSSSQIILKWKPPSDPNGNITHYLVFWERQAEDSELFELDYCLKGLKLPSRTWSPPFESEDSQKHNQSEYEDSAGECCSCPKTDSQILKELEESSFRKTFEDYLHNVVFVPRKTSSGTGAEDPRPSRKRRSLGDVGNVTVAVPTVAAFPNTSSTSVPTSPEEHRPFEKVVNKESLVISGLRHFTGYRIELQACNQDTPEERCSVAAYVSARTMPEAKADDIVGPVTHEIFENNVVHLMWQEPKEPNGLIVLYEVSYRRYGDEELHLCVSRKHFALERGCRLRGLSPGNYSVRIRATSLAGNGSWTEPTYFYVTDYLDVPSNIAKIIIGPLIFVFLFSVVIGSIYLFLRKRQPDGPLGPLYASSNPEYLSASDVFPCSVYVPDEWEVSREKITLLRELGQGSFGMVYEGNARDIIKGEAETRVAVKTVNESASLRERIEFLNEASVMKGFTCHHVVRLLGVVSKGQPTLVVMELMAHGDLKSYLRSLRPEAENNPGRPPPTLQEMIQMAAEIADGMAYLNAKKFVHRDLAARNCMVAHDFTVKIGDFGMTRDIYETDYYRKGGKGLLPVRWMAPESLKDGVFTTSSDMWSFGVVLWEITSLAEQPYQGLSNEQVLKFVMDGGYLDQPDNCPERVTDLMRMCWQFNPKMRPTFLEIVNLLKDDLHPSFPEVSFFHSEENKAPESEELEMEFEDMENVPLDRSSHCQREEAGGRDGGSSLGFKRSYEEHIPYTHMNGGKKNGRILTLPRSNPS
c-Kit, sequence (P10721 26-976): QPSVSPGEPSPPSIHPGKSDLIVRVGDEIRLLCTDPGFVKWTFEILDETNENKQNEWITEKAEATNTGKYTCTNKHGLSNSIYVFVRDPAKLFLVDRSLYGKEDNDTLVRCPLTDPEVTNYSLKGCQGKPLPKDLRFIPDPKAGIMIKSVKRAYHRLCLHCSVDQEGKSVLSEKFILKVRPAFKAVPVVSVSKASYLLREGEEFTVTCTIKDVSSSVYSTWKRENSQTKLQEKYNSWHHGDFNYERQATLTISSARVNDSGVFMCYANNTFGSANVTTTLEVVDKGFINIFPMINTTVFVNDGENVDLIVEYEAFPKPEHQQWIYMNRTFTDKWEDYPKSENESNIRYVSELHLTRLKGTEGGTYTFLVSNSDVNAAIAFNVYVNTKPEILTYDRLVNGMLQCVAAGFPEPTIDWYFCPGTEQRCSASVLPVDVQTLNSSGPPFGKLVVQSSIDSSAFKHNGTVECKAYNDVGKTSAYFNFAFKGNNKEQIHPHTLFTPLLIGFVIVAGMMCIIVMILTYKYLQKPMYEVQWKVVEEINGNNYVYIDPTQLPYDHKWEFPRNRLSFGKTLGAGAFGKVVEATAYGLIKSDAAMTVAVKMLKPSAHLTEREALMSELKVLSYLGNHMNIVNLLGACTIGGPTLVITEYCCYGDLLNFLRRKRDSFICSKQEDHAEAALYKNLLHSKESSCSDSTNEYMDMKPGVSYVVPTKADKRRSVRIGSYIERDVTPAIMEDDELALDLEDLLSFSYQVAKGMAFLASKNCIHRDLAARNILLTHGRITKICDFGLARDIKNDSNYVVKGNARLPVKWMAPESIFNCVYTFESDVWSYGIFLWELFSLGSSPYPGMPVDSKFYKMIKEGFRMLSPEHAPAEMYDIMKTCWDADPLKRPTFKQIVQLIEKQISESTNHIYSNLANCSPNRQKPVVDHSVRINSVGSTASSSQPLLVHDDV
c-erbB2, sequence (P04626 23-1255): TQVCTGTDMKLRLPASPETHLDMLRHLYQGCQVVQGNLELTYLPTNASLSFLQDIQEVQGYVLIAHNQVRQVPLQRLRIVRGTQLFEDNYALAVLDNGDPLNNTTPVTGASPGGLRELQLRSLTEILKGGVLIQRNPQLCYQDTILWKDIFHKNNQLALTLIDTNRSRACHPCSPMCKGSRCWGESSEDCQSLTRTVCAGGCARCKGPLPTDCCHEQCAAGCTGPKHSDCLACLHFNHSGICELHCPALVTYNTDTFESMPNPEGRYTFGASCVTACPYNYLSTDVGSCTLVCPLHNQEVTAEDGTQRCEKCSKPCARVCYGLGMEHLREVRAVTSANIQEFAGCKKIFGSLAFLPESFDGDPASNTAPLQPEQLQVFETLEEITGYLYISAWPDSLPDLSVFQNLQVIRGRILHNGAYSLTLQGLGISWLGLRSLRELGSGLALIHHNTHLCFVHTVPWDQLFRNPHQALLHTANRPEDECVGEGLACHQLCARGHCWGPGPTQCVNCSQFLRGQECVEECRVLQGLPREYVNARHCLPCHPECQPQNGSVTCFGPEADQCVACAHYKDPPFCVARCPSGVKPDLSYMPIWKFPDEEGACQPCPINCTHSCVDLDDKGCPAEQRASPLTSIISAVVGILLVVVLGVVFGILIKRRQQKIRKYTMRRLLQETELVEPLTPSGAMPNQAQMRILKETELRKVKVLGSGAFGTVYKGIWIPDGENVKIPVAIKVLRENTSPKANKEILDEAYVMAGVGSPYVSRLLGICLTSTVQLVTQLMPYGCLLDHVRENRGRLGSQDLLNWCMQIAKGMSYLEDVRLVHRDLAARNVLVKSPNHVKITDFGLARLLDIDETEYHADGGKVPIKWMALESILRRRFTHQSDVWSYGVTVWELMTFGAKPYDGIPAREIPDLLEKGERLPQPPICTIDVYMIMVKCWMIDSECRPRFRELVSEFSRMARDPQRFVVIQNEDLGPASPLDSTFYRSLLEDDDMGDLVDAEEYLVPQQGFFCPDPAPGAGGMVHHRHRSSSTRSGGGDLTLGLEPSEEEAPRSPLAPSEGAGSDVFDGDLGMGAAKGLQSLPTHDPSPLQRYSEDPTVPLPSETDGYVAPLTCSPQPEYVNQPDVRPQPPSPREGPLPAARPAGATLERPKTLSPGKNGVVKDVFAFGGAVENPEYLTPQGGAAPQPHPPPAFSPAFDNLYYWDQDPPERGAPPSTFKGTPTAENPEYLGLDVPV

Structure (SMILES): Cc1ccc(NC(=O)c2ccccc2)cc1Nc1nccc(-c2cccnc2)n1 [CGP 53 716]
- inhibitory activity of other RTKs including VEGF receptors [1]: little or no inhibitory activity
- inhibition of autophosphorylation of PDGF receptors (PDGF receptors): potent inhibitors
- inhibition of autophosphorylation of other receptors tested including VEGF receptors [2]: poor inhibitors

Structure (SMILES): Cc1ccc(NC(=O)c2ccc(CN3CCN(C)CC3)cc2)cc1Nc1nccc(-c2cccnc2)n1 [CGP 57 148]
- inhibitory activity of other RTKs including VEGF receptors [1]: little or no inhibitory activity
- inhibition of autophosphorylation of PDGF receptors (PDGF receptors): potent inhibitors
- inhibition of autophosphorylation of other receptors tested including VEGF receptors [2]: poor inhibitors

Structure (SMILES): Clc1ccc(Nc2nnc(Cc3ccncc3)c3ccccc23)cc1 [PTK 787]
- inhibition of autophosphorylation of VEGF receptors (VEGF receptors): inhibits autophosphorylation
- RRLR compared to contralateral eyes in the same mice (C57BL/6 mice): not a significant difference
- inhibition of autophosphorylation of c-Kit (c-Kit): inhibits autophosphorylation
- inhibition of autophosphorylation of PDGF receptors (PDGF receptors): inhibits autophosphorylation
- inhibition of autophosphorylation of insulin receptor (insulin receptor): poor inhibitor
- inhibition of autophosphorylation of c-erbB2 (c-erbB2): poor inhibitor
- inhibition of phosphorylation by the kinase domain of human VEGF receptor 1 (Flt-1): good inhibitor
